Like-named read-outs stand apart in the source and are kept apart here.

Our source for the inhibition, IC50 and EC50 values is article PMC7985445, “Characterization of Plasmodium falciparum Pantothenate Kinase and Identification of Its Inhibitors From Natural Products” (Frontiers in Cellular and Infection Microbiology, 2021).

For one test, the target named is T1, PfPanK1 (Plasmodium falciparum, UniProt Q8ILP4).
T1 sequence (Q8ILP4 1-519): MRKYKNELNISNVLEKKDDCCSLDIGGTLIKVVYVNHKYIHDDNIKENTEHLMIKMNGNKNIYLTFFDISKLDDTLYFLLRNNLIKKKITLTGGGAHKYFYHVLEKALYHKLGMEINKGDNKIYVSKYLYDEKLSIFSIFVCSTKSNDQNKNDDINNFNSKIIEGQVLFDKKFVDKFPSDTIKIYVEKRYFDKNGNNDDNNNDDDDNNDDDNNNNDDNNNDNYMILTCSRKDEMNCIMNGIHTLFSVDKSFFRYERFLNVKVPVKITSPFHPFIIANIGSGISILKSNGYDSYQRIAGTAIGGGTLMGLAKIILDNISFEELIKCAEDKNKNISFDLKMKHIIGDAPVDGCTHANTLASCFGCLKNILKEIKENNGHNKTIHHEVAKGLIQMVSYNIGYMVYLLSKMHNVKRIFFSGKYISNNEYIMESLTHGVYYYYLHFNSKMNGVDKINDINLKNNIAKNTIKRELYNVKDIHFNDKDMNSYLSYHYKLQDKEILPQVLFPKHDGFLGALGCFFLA
In words: Screening of natural compounds for PfPanK inhibitors and IC50 determination (recombinant enzyme, ADP Hunter Plus). Type of test: biochemical.

The test system of test [1] is P. falciparum K1 and FCR3 strain. The note with it: cited from earlier work.
A further test has as its system various human cell lines. On the set-up: method as in Koizumi et al., 2009. The note with it: ref Koizumi et al., 2009; cited from earlier work.
Test [2] concerns Plasmodium falciparum sensitive strain 3D7. In words: P. falciparum asexual blood stage growth, diaphorase-coupled LDH assay. It is filed as cell-based. The note with it: 3D7, 72 h incubation, mean ± SEM, read-out: IC50 P. falciparum erythrocytic stages.
Procedure: Before using, parasite culture was synchronized with 5% (w/v) d-sorbitol, as previously described ([Lambros and Vanderberg, 1979]). Ring stage 0.3% parasitemia (25 µl/well) were placed in a 384-well plate. Serial dilutions (50, 25, 12.5, 6.3, 3.1, 1.6, 0.8, and 0.4 μM) of each compound were used for calculating IC50. As the negative growth control, 50 µM of Mefloquine and 20 µM of Atovaquone were used. After 72 h of incubation, parasite growth was determined by diaphorase-coupled lactate dehydrogenase (LDH) assay, as previously described ([Hartuti et al., 2018]). Each well’s absorbance was measured at 650 nm using SpectraMax Paradigm®Multi-Mode microplate reader (Molecular Devices, San Jose, CA, USA). The IC50 values were analyzed and calculated with GraphPad PRISM 8.0 (San Diego, California USA).
[3] abbreviates: recombinant PfPanK1; mean ± SEM.

Procedure for PfPanK1: We screened 247 compounds from the Kitasato Natural Products Library ([Mori et al., 2015]; [Nurkanto et al., 2018]) against PfPanK recombinant enzyme. Compounds were dissolved in 50% DMSO at a final concentration of 1 mg/ml.

Broadly, the inhibition is the change of the read-out against control, counted positive when it falls. By IC50 is commonly meant the concentration needed to halve the response being measured. As to `CC(=O)Oc1cccc2c(=O)c3c4c(c(=[N+]=[N-])c=3c(=O)c12)C(OC(C)=O)C(C)(OC(C)=O)C(OC(C)=O)C4OC(C)=O` (stereo not shown) [Diacetylkinamycin C], at PfPanK1 (primary screening; 37°C, 2 h), the inhibition turned out to be 96.1%. The IC50 at PfPanK1 (setting [3]) is 36200 ± 4700 nM; in test [1] (FCR3 strain, ref Shimizu el al., 2019, unpublished, read-out: IC50 P. falciparum erythrocytic stages), 1100 nM; in test [1] (K1 strain, ref Shimizu el al., 2019, unpublished, read-out: IC50 P. falciparum erythrocytic stages), 2200 nM; in test [1] (range over drug-resistant K1 and drug-sensitive FCR3 strain, ref Shimizu et al., 2019, unpublished, read-out: IC50 against P. falciparum), 1100 to 2200 nM.
Usually EC50 stands for the concentration that produces a half-maximal response. In the case of `COc1c2c(c(O)c3c(=O)c4c(oc13)[C@@H](O)CC[C@@H]4O)-c1c3c(c4cc(C)n(C)c(=O)c4c1O)OCO[C@H]3C2` [Simaomicin α], at PfPanK1 (2 h, primary screening; 37°C), the inhibition stood at 76.9%. Moreover, the IC50 was 57600 ± 4800 nM at PfPanK1 (setting [3]); 0.018 nM in test [1] (FCR3 strain, ref Ui et al., 2007, read-out: IC50 P. falciparum erythrocytic stages); 0.083 nM in test [1] (K1 strain, ref Ui et al., 2007, read-out: IC50 P. falciparum erythrocytic stages). In addition, the EC50 in the test with various human cell lines is 0.3 to 19 nM.
As for `OC[C@H]1O[C@@H](Oc2ccc(/C=C/c3cc(O)c4c(c3)O[C@H](c3ccc(O)cc3)[C@H]4c3cc(O)cc(O)c3)cc2)[C@H](O)[C@@H](O)[C@@H]1O` [Gnemonoside D], the inhibition at PfPanK1 (primary screening; 37°C, 2 h) came to 85%. In addition, the figures for the IC50 (at PfPanK1 (setting [3]); in test [2]) were 57500 ± 3600 nM and 1900 ± 600 nM, respectively.
